# Laboratory results as given in ChEMBL document CHEMBL1914411, “Synthesis of lipophilic dimeric C-7/C-7-linked ciprofloxacin and C-6/C-6-linked levofloxacin derivatives. Versatile in vitro biological evaluations of monomeric and dimeric fluoroquinolone derivatives as potential antitumor, antibacterial or antimycobacterial agents” (Eur J Med Chem, 2011).
# Calls of active or inactive are those of the source. How the calls were made is not given here.
# Assays:
# Staphylococcus aureus [1] = assay: Antimicrobial activity against methicillin-resistant Staphylococcus aureus ATCC 33591 after 18 to 24 hrs by broth microdilution method; type: functional
# Pseudomonas aeruginosa = assay: Antimicrobial activity against Pseudomonas aeruginosa CIP 82.118 after 18 to 24 hrs by broth microdilution method; type: functional
# [2] = test system: Mycobacterium tuberculosis; assay: Antimycobacterial activity against Mycobacterium tuberculosis H37Rv assessed as growth inhibition at 0.1 uM after 6 days by MTT colorimetric microassay; type: functional, organism-based
# Staphylococcus aureus [3] = assay: Antimicrobial activity against multidrug-resistant Staphylococcus aureus isolate 2 after 18 to 24 hrs by broth microdilution method; type: functional
# Enterococcus hirae = assay: Antimicrobial activity against Enterococcus hirae CIP 5855 after 18 to 24 hrs by broth microdilution method; type: functional
# Staphylococcus aureus [4] = assay: Antimicrobial activity against methicillin-resistant Staphylococcus aureus ATCC 33592 after 18 to 24 hrs by broth microdilution method; type: functional
# Staphylococcus aureus [5] = assay: Antimicrobial activity against multidrug-resistant Staphylococcus aureus isolate 1 after 18 to 24 hrs by broth microdilution method; type: functional
# Escherichia coli = assay: Antimicrobial activity against Escherichia coli CIP 53126 after 18 to 24 hrs by broth microdilution method; type: functional
# Staphylococcus aureus [6] = assay: Antimicrobial activity against Staphylococcus aureus CIP 4.83 after 18 to 24 hrs by broth microdilution method; type: functional
SMILES,MBC (Staphylococcus aureus [1]) [µM],MIC (Staphylococcus aureus [1]) [µM],MBC (Pseudomonas aeruginosa) [µM],MIC (Pseudomonas aeruginosa) [µM],growth inhibition (GI) [2],MBC (Staphylococcus aureus [3]) [µM],MIC (Staphylococcus aureus [3]) [µM],MBC (Enterococcus hirae) [µM],MIC (Enterococcus hirae) [µM],MBC (Staphylococcus aureus [4]) [µM],MIC (Staphylococcus aureus [4]) [µM],MBC (Staphylococcus aureus [5]) [µM],MIC (Staphylococcus aureus [5]) [µM],MBC (Escherichia coli) [µM],MIC (Escherichia coli) [µM],MBC (Staphylococcus aureus [6]) [µM],MIC (Staphylococcus aureus [6]) [µM]
CCC(=O)N1CCN(c2cc3c(cc2F)c(=O)c(C(=O)O)cn3C2CC2)CC1,0.97,0.48,250,31.2,inactive,31.2,31.2,3.9,3.9,0.48,0.24,500,62.5,500,3.9,≤ 0.97,≤ 0.48
CCCC(=O)N1CCN(c2cc3c(cc2F)c(=O)c(C(=O)O)cn3C2CC2)CC1,0.48,0.48,250,62.5,inactive,62.5,31.2,7.8,7.8,0.48,0.24,62.5,31.2,7.8,7.8,≤ 0.48,≤ 0.48
O=C(CCCCCCCCCCCCCC(=O)OCN1CCN(c2cc3c(cc2F)c(=O)c(C(=O)O)cn3C2CC2)CC1)OCN1CCN(c2cc3c(cc2F)c(=O)c(C(=O)O)cn3C2CC2)CC1,1.9,0.48,250,62.5,inactive,62.5,31.2,15.6,7.8,0.97,0.12,500,62.5,62.5,31.2,≤ 0.48,≤ 0.12
CCOC(=O)N1CCN(c2cc3c(cc2F)c(=O)c(C(=O)O)cn3C2CC2)CC1,1.9,0.97,250,62.5,inactive,125,62.5,3.9,3.9,1.9,0.48,500,125,31.2,7.8,≤ 0.97,≤ 0.97
CC(=O)N1CCN(c2cc3c(cc2F)c(=O)c(C(=O)O)cn3C2CC2)CC1,0.97,0.97,31.2,31.2,inactive,62.5,31.2,7.8,7.8,0.97,0.48,500,62.5,1.9,1.9,1.9,≤ 0.48
O=C(O)c1cn(C2CC2)c2cc(N3CCN(C(=O)Cc4ccccc4)CC3)c(F)cc2c1=O,0.24,0.12,250,62.5,inactive,15.6,15.6,7.8,3.9,0.24,0.12,62.5,31.2,7.8,3.9,≤ 0.24,≤ 0.12
CC(C)(C)C(=O)N1CCN(c2cc3c(cc2F)c(=O)c(C(=O)O)cn3C2CC2)CC1,0.48,0.48,250,62.5,inactive,31.2,31.2,7.8,7.8,0.48,0.24,500,31.2,31.2,15.6,≤ 0.97,≤ 0.48
O=C(CCCCCCCCCCC(=O)OCN1CCN(c2cc3c(cc2F)c(=O)c(C(=O)O)cn3C2CC2)CC1)OCN1CCN(c2cc3c(cc2F)c(=O)c(C(=O)O)cn3C2CC2)CC1,3.9,1.9,125,62.5,inactive,250,62.5,31.2,31.2,0.48,0.24,250,125,62.5,31.2,≤ 0.97,≤ 0.97
CC(C)(C)OC(=O)N1CCN(c2cc3c(cc2F)c(=O)c(C(=O)O)cn3C2CC2)CC1,0.48,0.06,250,15.6,inactive,31.2,15.6,15.6,15.6,0.48,0.12,500,31.2,1.9,1.9,≤ 0.24,≤ 0.12
O=C(O)c1cn(C2CC2)c2cc(N3CCN(C(=O)CO)CC3)c(F)cc2c1=O,1.9,0.97,250,15.6,inactive,62.5,62.5,7.8,7.8,1.9,0.24,> 500,125,1.9,≤ 0.97,1.9,≤ 0.97
